Assay results as given in patent US11427553B2, “Dihydrooxadiazinones” (Bayer Aktiengesellschaft, priority 2017, dated 2022).

How the values were obtained:
Hs 578T cells = assay: Assay 1 cell proliferation measurement, Hs 578T; assay type: cell-based; conditions: Homo sapiens, Breast, read-out: Anti-proliferation IC50 [nM] Hs 578T
SK-MEL-3 cells = assay: Assay 1 cell proliferation measurement (CTG, 72 h), SK-MEL-3; assay type: cell-based, human; conditions: Homo sapiens, SK-MEL3; Assay 1, 72 h, Cell Titer Glo; read-out: SK-MEL-3 IC50 [nM] (melanoma)
Method in brief: (§1)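 CTG luminescence readout after 72 h compound exposure at 37 °C; 10-point 2.5-fold dilutions from 100 nM max final; DMSO 0.3% vehicle. IC50 from 4-parameter fit, normalised to 0 h plate (max inhibition) and DMSO (min inhibition).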

DBTRG-05-MG cells = assay: Assay 1 cell proliferation measurement, DBTRG-05-MG; assay type: cell-based; conditions: Homo sapiens, Glioblastoma, read-out: Anti-proliferation IC50 [nM] DBTRG-05-MG
PA-1 cells = assay: Assay 1 cell proliferation measurement, PA-1; assay type: cell-based; conditions: Homo sapiens, Ovarian teratocarcinoma, read-out: Anti-proliferation IC50 [nM] PA-1
CHL-1 cells = assay: Assay 1 cell proliferation measurement, CHL-1; assay type: cell-based; conditions: Homo sapiens, Melanoma, read-out: Anti-proliferation IC50 [nM] CHL-1
A-2058 cells = assay: Assay 1 cell proliferation measurement, A-2058; assay type: cell-based; conditions: Homo sapiens, A2058; Melanoma; read-out: Anti-proliferation IC50 [nM] A-2058
HeLa cells = assay: Assay 1 cell proliferation measurement (CTG, 72 h), HeLa; assay type: cell-based, human; conditions: Homo sapiens, HeLa; Assay 1, 72 h, Cell Titer Glo; read-out: HeLa IC50 [nM] (Cervical cancer)
Method in brief: as §1

IGR37 cells = assay: Assay 1 cell proliferation measurement (CTG, 72 h), IGR37; assay type: cell-based; conditions: Homo sapiens, IGR-37, Cell Titer Glo, read-out: IGR37 IC50 [nM] (melanoma)
DK-MG cells = assay: Assay 1 cell proliferation measurement, DK-MG; assay type: cell-based; conditions: Homo sapiens; Glioblastoma; read-out: Anti-proliferation IC50 [nM] DK-MG
human full length PDE3A = human full length PDE3A (Homo sapiens (Human), UniProt Q14432); assay: Assay 4 PDE3A enzyme inhibition (3H-cAMP SPA); assay type: biochemical; conditions: Sf9 cell extract
Method in brief: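 In this SPA format, the 60-min room-temperature reaction used 0.025 μCi [8-3H]cAMP and diluted full-length PDE3A from Sf9 cells. Percentage activity was plotted against log compound concentration to derive IC50.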

HEL 92.1.7 cells = assay: Assay 1 cell proliferation measurement, HEL 92.1.7; assay type: cell-based; conditions: Homo sapiens, Erythroleukemia, read-out: Anti-proliferation IC50 [nM] HEL 92.1.7
human full length PDE3B = human full length PDE3B (Homo sapiens (Human), UniProt Q13370); assay: Assay 5 PDE3B enzyme inhibition (3H-cAMP SPA); assay type: biochemical; conditions: Sf9 cell extract
Method in brief: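 Hydrolysis of tritiated cAMP by Sf9-expressed full-length human PDE3B proceeded 60 min at room temperature in Tris buffer pH 7.5 containing Mg2+, EDTA and BSA, with enzyme dilution keeping substrate consumption below 70%. IC50 derived from percent activity versus log compound concentration.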

[1] = Assay 6 in vitro metabolic stability in cryopreserved human hepatocytes (CL, Fmax); assay type: in vitro ADME; conditions: 1 μM test compound; for Clblood: hepatic in vivo blood clearance calculated (well-stirred) from half-life in cryopreserved human hepatocytes; for Fmax: maximal oral bioavailability calculated from half-life in cryopreserved human hepatocytes
Procedure: Assay 6 Method for Human Cryo Hepatocytes:
Investigation of In Vitro Metabolic Stability in Cryopreserved Human Hepatocytes (Including Calculation of Hepatic In Vivo Blood Clearance (CL) and Maximal Oral Bioavailability (Fmax))
Cryopreserved Hepatocytes (e.g. purchased from Celsis InVitroTechnologies) were briefly thawed, washed with 45 mL pre-warmed in in vitro GRO HT medium and centrifuged for 5 min at 50×g. The cell pellet was resuspended in 5 ml of Krebs-Henseleit […] (KHB). Cell viability was determined by trypan blue exclusion.
For the metabolic stability assay liver cells were distributed in WME containing 5% FCS to glass vials at a density of 1.0×10^6 vital cells/ml. The test compound was added to a final concentration of 1 μM. During incubation, the hepatocyte suspensions were continuously shaken at 580 rpm and aliquots were taken at 2, 8, 16, 30, 45 and 90 min, to which equal volumes of cold methanol were immediately added. Samples were frozen at −20° C. over night, after subsequently centrifuged for 15 minutes at 3000 rpm and the supernatant was analyzed with an Agilent 1290 HPLC-system with LCMS/MS detection.
The half-life of a test compound was determined from the concentration-time plot. From the half-life the intrinsic clearances were calculated. Together with the additional parameters liver blood flow, amount of liver cells in vivo and in vitro. The hepatic in vivo blood clearance (CL) and the maximal oral bioavailability (Fmax) was calculated.

human full length PDE3B, sequence (Q13370 whole entry): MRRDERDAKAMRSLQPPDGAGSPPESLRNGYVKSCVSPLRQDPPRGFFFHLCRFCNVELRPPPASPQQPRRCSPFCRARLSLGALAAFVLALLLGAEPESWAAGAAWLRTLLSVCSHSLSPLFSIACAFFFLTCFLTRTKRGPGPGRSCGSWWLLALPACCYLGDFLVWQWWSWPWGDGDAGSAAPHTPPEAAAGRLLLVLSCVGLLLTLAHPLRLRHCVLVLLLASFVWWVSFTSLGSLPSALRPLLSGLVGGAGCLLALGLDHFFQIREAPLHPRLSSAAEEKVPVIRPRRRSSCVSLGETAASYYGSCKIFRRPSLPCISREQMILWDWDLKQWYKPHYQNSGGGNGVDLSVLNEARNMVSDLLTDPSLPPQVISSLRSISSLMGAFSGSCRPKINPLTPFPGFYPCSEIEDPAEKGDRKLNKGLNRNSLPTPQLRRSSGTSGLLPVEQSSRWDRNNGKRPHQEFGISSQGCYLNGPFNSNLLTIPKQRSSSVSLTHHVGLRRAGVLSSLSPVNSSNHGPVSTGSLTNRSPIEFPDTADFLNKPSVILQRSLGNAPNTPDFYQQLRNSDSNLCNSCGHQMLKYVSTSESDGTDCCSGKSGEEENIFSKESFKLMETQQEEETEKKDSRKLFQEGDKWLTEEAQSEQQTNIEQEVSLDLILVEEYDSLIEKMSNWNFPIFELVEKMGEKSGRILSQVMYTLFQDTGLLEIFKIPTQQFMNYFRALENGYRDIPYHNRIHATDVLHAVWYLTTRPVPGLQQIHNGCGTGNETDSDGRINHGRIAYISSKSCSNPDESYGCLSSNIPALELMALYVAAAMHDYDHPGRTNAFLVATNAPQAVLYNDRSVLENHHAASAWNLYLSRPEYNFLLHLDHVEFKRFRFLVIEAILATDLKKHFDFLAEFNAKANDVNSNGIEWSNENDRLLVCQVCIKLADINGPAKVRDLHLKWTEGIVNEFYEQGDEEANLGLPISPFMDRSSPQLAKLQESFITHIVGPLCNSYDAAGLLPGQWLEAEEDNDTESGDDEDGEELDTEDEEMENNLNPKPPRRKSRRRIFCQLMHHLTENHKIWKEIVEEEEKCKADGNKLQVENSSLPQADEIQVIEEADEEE
human full length PDE3A, sequence (Q14432 whole entry): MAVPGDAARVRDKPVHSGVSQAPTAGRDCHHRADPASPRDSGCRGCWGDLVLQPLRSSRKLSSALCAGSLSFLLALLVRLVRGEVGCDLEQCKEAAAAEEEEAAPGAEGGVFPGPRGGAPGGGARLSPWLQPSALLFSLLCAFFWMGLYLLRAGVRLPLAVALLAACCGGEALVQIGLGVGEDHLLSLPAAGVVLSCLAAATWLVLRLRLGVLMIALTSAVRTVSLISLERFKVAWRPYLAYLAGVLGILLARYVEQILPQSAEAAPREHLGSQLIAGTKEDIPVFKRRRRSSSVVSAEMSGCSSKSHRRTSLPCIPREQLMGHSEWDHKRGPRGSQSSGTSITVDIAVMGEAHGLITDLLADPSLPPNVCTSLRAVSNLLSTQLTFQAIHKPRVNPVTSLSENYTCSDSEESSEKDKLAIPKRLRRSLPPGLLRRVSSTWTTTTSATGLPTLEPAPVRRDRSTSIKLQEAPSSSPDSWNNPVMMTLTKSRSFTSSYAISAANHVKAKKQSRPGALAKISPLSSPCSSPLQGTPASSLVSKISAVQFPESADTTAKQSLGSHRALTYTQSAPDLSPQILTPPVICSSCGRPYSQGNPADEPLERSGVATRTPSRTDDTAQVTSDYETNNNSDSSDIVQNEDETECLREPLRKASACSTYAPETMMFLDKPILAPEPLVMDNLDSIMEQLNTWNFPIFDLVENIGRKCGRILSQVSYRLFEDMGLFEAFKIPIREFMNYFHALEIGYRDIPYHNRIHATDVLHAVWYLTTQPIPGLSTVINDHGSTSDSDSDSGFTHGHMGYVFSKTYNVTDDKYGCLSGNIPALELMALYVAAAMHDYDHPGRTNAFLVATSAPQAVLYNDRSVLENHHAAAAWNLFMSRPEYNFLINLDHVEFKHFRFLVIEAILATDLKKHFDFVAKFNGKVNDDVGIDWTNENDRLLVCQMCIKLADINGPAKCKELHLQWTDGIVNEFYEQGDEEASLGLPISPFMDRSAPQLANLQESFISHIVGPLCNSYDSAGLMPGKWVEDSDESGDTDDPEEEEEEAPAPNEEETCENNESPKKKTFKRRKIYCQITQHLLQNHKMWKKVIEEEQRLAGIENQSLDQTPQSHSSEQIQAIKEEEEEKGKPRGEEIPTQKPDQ

Structure (SMILES)	IC50 (Hs 578T cells) [nM]	IC50 (SK-MEL-3 cells) [nM]	IC50 (DBTRG-05-MG cells) [nM]	IC50 (PA-1 cells) [nM]	IC50 (CHL-1 cells) [nM]	IC50 (A-2058 cells) [nM]	IC50 (HeLa cells) [nM]	IC50 (IGR37 cells) [nM]	IC50 (DK-MG cells) [nM]	IC50 (human full length PDE3A) [nM]	IC50 (HEL 92.1.7 cells) [nM]	IC50 (human full length PDE3B) [nM]	Clblood [1] [L/h/kg]	Fmax [1] [%]
Cc1ccc(C2=NNC(=O)OC2)cc1C(F)(F)F [Example 139, 5-[4-Methyl-3-(trifluoromethyl)phenyl]-3,6-dihydro-2H-1,3,4-oxadiazin-2-one]	> 100	29	> 100	> 100	58	> 100	14	40	61	140	> 100	310		
C[C@@H]1OC(=O)NN=C1c1ccc(N2CCN(C)CC2)c(C(F)(F)F)c1 [Example 277, (6S)-6-Methyl-5-[4-(4-methylpiperazin-1-yl)-3-(trifluoromethyl)phenyl]-3,6-dihydro-2H-1,3,4-oxadiazin-2-one]	> 100	1	> 100	> 100	> 100	> 100	0.3	1	> 100	100	> 100	87		
C[C@@H]1OC(=O)NN=C1c1ccc(-c2cnn(C(F)F)c2)c(C(F)(F)F)c1 [Example 190, (6S)-5-{4-[1-(Difluoromethyl)-1H-pyrazol-4-yl]-3-(trifluoromethyl)phenyl}-6-methyl-3,6-dihydro-2H-1,3,4-oxadiazin-2-one]		0.4					0.2	0.4		38		25	0.90	32
C[C@@H]1OC(=O)NN=C1c1cc(Cl)c(N2CCOCC2)c(C(F)(F)F)c1 [Example 121, (6S)-5-(-[(3-Chloro-4-(morpholin-4-yl)-5-(trifluoromethyl)phenyl)-)]-6-methyl-3,6-dihydro-2H-1,3,4-oxadiazin-2-one]		10					5	12		150		299	0.13	90
O=C1NN=C(c2ccc(-c3ccc(C(F)F)cc3)c(F)c2)CO1 [Example 92, 5-[4′-(Difluoromethyl)-2-fluoro[1,1′-biphenyl]-4-yl]-3,6-dihydro-2H-1,3,4-oxadiazin-2-one]	31	4	18	17	11	18	2	4	17	68	9	130		
O=C1NN=C(c2ccc(-c3ccc(F)cc3)c(OC(F)(F)F)c2)CO1 [Example 76, 5-[4′-Fluoro-2-(trifluoromethoxy)biphenyl-4-yl]-3,6-dihydro-2H-1,3,4-oxadiazin-2-one]		13					6	13		225		250	0.27	80
O=C1NN=C(c2ccc(-c3ccccc3C(F)F)c(F)c2)CO1 [Example 161, 5-[2′-(Difluoromethyl)-2-fluoro[1,1′-biphenyl]-4-yl]-3,6-dihydro-2H-1,3,4-oxadiazin-2-one]		10					6	12		66		49	0.55	59
C[C@@H]1OC(=O)NN=C1c1ccc(-c2ccnc(N)c2)c(C(F)(F)F)c1 [Example 165, (6S)-5-[4-(2-Aminopyridin-4-yl)-3-(trifluoromethyl)phenyl]-6-methyl-3,6-dihydro-2H-1,3,4-oxadiazin-2-one]		1					1	1		77		66	0.88	33
